According to US8895565B2, “Heterocyclic compound and use of the same” (priority 2009, dated 2014):

Experiments:
[1] = target: T1, EGF receptor tyrosine kinase (Homo sapiens, UniProt P00533); assay: Test (a): in vitro inhibition of the enzyme EGF receptor tyrosine kinase; format: biochemical; conditions: receptor tyrosine kinase partially purified from A-431 cells, EGF-stimulated
T1 construct: Receptor tyrosine kinase was obtained from A-431 cells (derived from human vulval carcinoma) in partially purified form; endogenous in cells; host or cells: A-431 cells (human vulval carcinoma); solubilised membrane preparation
Experimental: (a) In vitro assay for measuring the effect of a test compound in inhibiting the enzyme EGF receptor tyrosine kinase
Receptor tyrosine kinase was obtained from A-431 cells (derived from human vulval carcinoma) in partially purified form by a method relevant to a method shown in Carpenter et al., J. Biol. Chem., 1979, 254, 4884, Cohen et. al., J. Biol. Chem., 1982, 257, 1523, and Braun et al., J. Biol. Chem., 1984, 259, 2051.
A-431 cells were grown in Dulbecco's modified Eagle's medium (DMEM) containing 5% fetal calf serum (FCS) up to a confluent state. The resultant cells were homogenized in a hypotonic borate/EDTA buffer (pH 10.1). The homogenate was centrifuged at 400×g for 10 minutes at 0° C. to 4° C. […]
The test compound/EGF mixture solution (5 μl) was added to the test enzyme solution (10 μl) and the mixture was incubated at 0° C. to 4° C. for 30 minutes. […] Radioactivity present in the paper-filter was measured by a liquid scintillation counter (Sequence A). […] Receptor tyrosine kinase inhibition was indicated by inhibition ratio (%), which was calculated in accordance with the following equation, provided that the measurement results of sequence A is expressed by SA, the measurement results of sequence B by SB, and the measurement results of sequence C by SC. […] Subsequently, within a concentration range of a test compound providing IC50 value, the extent of inhibition was determined.

[2] = system: human nasopharyngeal cancer cell line KB; assay: Test (b): in vitro inhibition of EGF-stimulated growth of KB cells (MTT); format: cell-based; conditions: EGF 10 ng/ml
Experimental: (b) In vitro assay for measuring the effect of a test compound in inhibiting growth of human nasopharyngeal cancer cell line KB by EGF-stimulation
KB cells were seeded into wells at a density of 1×10^4 to 1.5×10^4 cells per well and grown in DMEM supplemented with 5% FCS (charcoal-stripped) for 24 hours. After incubation for 3 days, cell growth was determined based on the extent of blue color occurrence, which was produced by metabolizing a MTT tetrazolium dye. Subsequently, cell growth was determined in the presence of EGF (10 ng/ml) or in the presence of EGF (10 ng/ml) and a test compound within a predetermined concentration range. Then, an IC50 value could be calculated.

[3] = system: liver cell growth stimulation induced by growth factor TGFα; assay: Test (c): in vivo inhibition of liver cell growth stimulation induced by TGFα (BrdU uptake); conditions: Rattus norvegicus; male rats, oral, inhibition of liver cell proliferation by BrdU uptake, approximate ED50
Experimental: (c) In vivo assay for measuring the effect of a test compound (usually, ball-milled, prepared as a suspension in 0.5% polysorbate, and orally administered) in inhibiting liver cell growth stimulation induced by administration of growth factor TGFα (subcutaneous administration of 400 μg/kg, i.e., twice a usual dose, 3 hours and 7 hours respectively after administration of the test compound) in a group of male rats
In a control group of rats, administration of TGFα causes liver cell growth stimulation as large as on average 5 times.
Cell growth of control animals and test animals was measured in accordance with the following manner:
On the morning of the day after a test compound (or 0.5% polysorbate in a control group) was administered, bromodeoxyuridine (BrdU; intraperitoneally 100 mg/kg) was administered to animals. Four hours later, the animals were killed and the livers were excised out. Slices were cut out from each liver, and BrdU uptake was measured in the same manner as in conventional immunohistological techniques described below:
To calculate an approximate ED50 value on inhibition of liver cell proliferation measured by inhibition of BrdU uptake, tests were further performed using the test compound within a predetermined dose range.

[4] = system: xenografts of the human vulval epidermoid carcinoma cell line A-431; assay: Test (d): in vivo inhibition of growth of A-431 xenografts in athymic nude mice; conditions: tumor volume vs untreated control, dose of 50 mg/day/weight (kg), oral, once per day
Experimental: (d) In vivo assay on a group of athymic nude mice (strain ONU: Alpk) for determining the effect of a test compound (usually, ball-milled, prepared as a suspension in 0.5% polysorbate, and orally administered) in inhibiting the growth of xenografts of the human vulval epidermoid carcinoma cell line A-431
A-431 cells were maintained in a cultured product in DMEM having 5% FCS and 2 mM glutamine supplemented thereto. Freshly cultured cells were harvested by trypsinization and subcutaneously injected into both flanks of each of many donor nude mice (10000000 cells/0.1 ml/mouse). When a sufficient amount of tumorigen was obtained (about 9 to 14 days later), fragments of tumor tissue were transplanted in the flanks of recipient nude mice (test day 0). […] To these groups of mice, administration of the test compound was commenced. The test compound was administered once per day continuously for 13 days in total (including test day 7 to 19). In some tests, administration of the test compound was continued beyond test day 19, for example, to test day 26. In each case, the animals were killed on the following day and final tumor volume was calculated from the measurement values of the length and width of the tumors. The suppression percentage was calculated from the resultant tumor volume based on the control (untreated).

T1 sequence (P00533 25-1210): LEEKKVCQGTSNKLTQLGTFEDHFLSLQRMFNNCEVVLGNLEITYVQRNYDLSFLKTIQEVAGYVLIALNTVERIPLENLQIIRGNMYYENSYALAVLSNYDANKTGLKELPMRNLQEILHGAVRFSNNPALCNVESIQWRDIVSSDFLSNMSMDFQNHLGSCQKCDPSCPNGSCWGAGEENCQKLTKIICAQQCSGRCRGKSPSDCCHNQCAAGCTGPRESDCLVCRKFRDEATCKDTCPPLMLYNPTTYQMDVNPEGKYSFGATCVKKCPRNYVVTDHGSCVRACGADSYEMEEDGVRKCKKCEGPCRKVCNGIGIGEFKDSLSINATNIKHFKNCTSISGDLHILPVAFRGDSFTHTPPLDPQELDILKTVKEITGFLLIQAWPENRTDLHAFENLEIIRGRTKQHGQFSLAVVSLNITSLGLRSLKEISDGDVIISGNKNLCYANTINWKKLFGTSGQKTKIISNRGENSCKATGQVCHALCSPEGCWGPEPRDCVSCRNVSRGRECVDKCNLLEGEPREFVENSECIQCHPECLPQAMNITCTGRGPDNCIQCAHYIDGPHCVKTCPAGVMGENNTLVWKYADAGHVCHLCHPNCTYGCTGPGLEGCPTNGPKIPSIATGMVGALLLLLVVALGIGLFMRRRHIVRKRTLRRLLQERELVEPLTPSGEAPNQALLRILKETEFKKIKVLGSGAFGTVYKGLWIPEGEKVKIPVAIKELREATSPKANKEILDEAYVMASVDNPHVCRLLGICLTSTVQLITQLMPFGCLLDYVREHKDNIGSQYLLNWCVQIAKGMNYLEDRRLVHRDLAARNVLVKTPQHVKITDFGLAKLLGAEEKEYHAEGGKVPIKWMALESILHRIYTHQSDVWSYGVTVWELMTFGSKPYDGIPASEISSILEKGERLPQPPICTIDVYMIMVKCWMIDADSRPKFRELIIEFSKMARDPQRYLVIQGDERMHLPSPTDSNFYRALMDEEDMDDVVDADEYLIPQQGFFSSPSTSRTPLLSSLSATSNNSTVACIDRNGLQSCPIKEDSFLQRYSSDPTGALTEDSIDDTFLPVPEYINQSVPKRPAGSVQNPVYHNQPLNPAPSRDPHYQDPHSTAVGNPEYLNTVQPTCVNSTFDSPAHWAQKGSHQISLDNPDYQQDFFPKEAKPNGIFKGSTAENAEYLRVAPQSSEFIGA
T1 sequence (P01133 971-1023 partner limits assumed): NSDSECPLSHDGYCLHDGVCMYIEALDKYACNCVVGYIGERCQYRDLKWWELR

IC50 [1] [nM]	IC50 [2] [nM]	SMILES	ED50 [3] [mg/kg]	suppression rate in Test (d) [4] [%]
240	800	CCOC(=O)c1ccc(CNc2ncnc(C)c2C#Cc2ccc(C(F)(F)F)cc2)o1 [Compound No. 1, Ethyl 5-{6-methyl-5-{[4-(trifluoromethyl)phenyl]ethynyl}pyrimidin-4-ylaminomethyl}-2-furancarboxylate]	< 12.1	68
220	700	COC(=O)c1ccc(CNc2ncnc(C)c2C#Cc2ccc(C(F)(F)F)cc2)o1 [Compound No. 2, Methyl 5-(6-methyl-5-{[4-(trifluoromethyl)phenyl]ethynyl}pyrimidin-4-ylaminomethyl)-2-furancarboxylate]	< 11.8	69
